Data reported in publication PMC7099204, “Geranylated Coumarins From Thai Medicinal Plant Mammea siamensis With Testosterone 5α-Reductase Inhibitory Activity” (Frontiers in Chemistry, 2020).
Like-named read-outs stand apart in the source and are kept apart here.

Target: T1, testosterone 5α-reductase (Rattus norvegicus, UniProt P24008)
T1 sequence (P24008 1-259): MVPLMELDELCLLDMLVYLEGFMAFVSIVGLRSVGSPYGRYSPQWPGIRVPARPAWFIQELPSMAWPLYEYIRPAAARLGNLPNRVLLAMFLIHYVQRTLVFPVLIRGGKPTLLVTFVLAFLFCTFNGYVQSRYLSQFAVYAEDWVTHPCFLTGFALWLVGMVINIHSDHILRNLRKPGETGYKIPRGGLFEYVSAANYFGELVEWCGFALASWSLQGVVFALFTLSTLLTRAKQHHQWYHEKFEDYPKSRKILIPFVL
Assay: Assay for testosterone 5α-reductase inhibitory activity (rat liver S9 fractions, HPLC of remaining testosterone)
Type: biochemical
Description: The experiment was performed in accordance with previously reported methods (Matsuda et al., [2001]; Lee et al., [2012]; Koseki et al., [2015]) with slight modifications. In brief, the assay was performed in 48-well microplates (Sumitomo Bakelite Co., Ltd., Tokyo, Japan). The reaction solution was pre-incubated with or without a test sample (5 μL/well, dissolved in DMSO), in a potassium phosphate buffer (40 mM, pH 6.5, 490 μL/well) containing substrate (0.35 nmol of testosterone, Tokyo Chemical Industry Co., Ltd., Tokyo, Japan) and NADPH (10 nmol, Oriental Yeast Co., Ltd., Tokyo, Japan) at room temperature (25°C) for 20 min. The enzymatic reaction was initiated by the addition of rat liver S9 fractions (10 μL/well, dissolved in the phosphate buffer, 20.6 μg/well, Oriental Yeast Co., Ltd., Tokyo, Japan, lot no. 109031513) at 37°C for 30 min. After incubation, the reaction mixture was immediately heated in boiling water for 2 min to stop the reaction. Then the reaction solution of each well was transferred to a microtube and extracted with 500 μL of EtOAc. After the microtube was centrifuged (10,000 rpm, 5 min), an aliquot of each EtOAc phase (300 μL) was transferred into another tube. The solvent in the tube was evaporated and the residue was dissolved in 30 μL of acetonitrile containing an internal standard (I.S.) fludrocortisone acetate (20 μg/mL, Sigma-Aldrich, Co., LLC, St. Louis, USA). […] The 5α-reductase inhibitory activity was determined from the following equation using the peak area ratios (r = testosterone/I.S.). Experiments were performed in triplicate or quadruple, and IC50 values were determined graphically. The 5α-reductase inhibitor finasteride (Tokyo Chemical Industry Co., Ltd., Tokyo, Japan) was used as a reference compound.
Inhibition(%)=[r(T)-r(C)/r(B)-r(C)]× 100
Control (C): enzyme (+), test sample (–); Test (T): enzyme (+), test sample (+); Blank (B): enzyme (–), test sample (+).

[1] = 3 μM, mean ± S.E.M. (N = 3–4), read-out: Inhibition (%)
[2] = 10 μM, mean ± S.E.M. (N = 3–4), read-out: Inhibition (%)
[3] = 30 μM, mean ± S.E.M. (N = 3–4), read-out: Inhibition (%)
[4] = 100 μM, mean ± S.E.M. (N = 3–4), read-out: Inhibition (%)

| SMILES | inhibition at 3 µM [1] [%] | inhibition at 10 µM [2] [%] | inhibition at 30 µM [3] [%] | inhibition at 100 µM [4] [%] | other results |
| --- | --- | --- | --- | --- | --- |
| CC(C)=CCC/C(C)=C/Cc1c(O)c(C(=O)C(C)C)c2oc(=O)cc3c2c1OC(C)C3 (centres unmarked) [Compound 6, Mammeasin C] | 3.4 ± 13.1 | 8.8 ± 10 | 17.9 ± 10.6 | 52.9 ± 22.5 |  |
| CC(C)=CCc1c(O)c(C(=O)CC(C)C)c(O)c2c(-c3ccccc3)cc(=O)oc12 [Compound 17, Mammea A/AA] |  |  |  |  | inhibition at 3 µM: 18.9 ± 7%; inhibition at 10 µM: 32 ± 3.9%; inhibition at 30 µM: 62 ± 2.8%; inhibition at 100 µM: 92.9 ± 5.3% |
| CCCC(=O)c1c(O)c(C/C=C(\C)CCC=C(C)C)c(O)c2c([C@@H](O)CC)cc(=O)oc12 [Compound 8, kayeassamin A] |  |  |  | 20.2 ± 7.9 |  |
| CCCC(=O)c1c(O)c2c(c3c([C@@H](O)CC)cc(=O)oc13)OC(C)(C)C=C2 [Compound 33, deacetylmammea E/BC cyclo D] |  |  |  | 40.8 ± 4.1 |  |
| CCC(C)C(=O)c1c(O)c(C/C=C(\C)CCC=C(C)C)c(O)c2c([C@H](CC)OC(C)=O)cc(=O)oc12 (some centres unmarked) [Compound 12, surangin B] |  |  |  | 38.5 ± 5 |  |
| CC[C@H](O)c1cc(=O)oc2c(CC=C(C)C)c(O)c(C(=O)CC(C)C)c(O)c12 [Compound 11, Kayeassamin G] | 14.4 ± 9.7 | 37.5 ± 6.9 | 61.3 ± 3 | 62.3 ± 3.2 |  |
| CC(C)CC(=O)c1c2c(c3oc(=O)cc(-c4ccccc4)c3c1O)CC(C(C)(C)O)O2 (centres unmarked) [Compound 34, mammea A/AA cyclo F] | 13.8 ± 6.7 | 21.6 ± 10.3 | 62.8 ± 18.1 | 57 ± 15.7 |  |
| CCCC(=O)c1c2c(c3oc(=O)cc(-c4ccccc4)c3c1O)C=CC(C)(C)O2 [Compound 26, Mammea A/AC cyclo D] |  |  |  | 32 ± 1.9 |  |
| CC[C@H](OC(C)=O)c1cc(=O)oc2c(C(=O)CC(C)C)c(O)c(C/C=C(\C)CCC=C(C)C)c(O)c12 [Compound 5, Mammeasin B] | 35.3 ± 6.1 | 39.9 ± 4.2 | 58.8 ± 9.6 | 83.7 ± 4.3 |  |
| CC[C@H](O)c1cc(=O)oc2c(C(=O)CC(C)C)c(O)c3c(c12)OC(C)(CCC=C(C)C)C=C3 (some centres unmarked) [Compound 2, Mammeasin E] | 20 ± 9.2 | 30.9 ± 9.3 | 53.9 ± 12.7 | 89.5 ± 15.8 |  |
| CCCC(=O)c1c2c(c3oc(=O)cc(-c4ccccc4)c3c1O)CC(C(C)(C)O)O2 (centres unmarked) [Compound 35, mammea A/AC cyclo F] | 4.2 ± 6.1 | 18.4 ± 6.9 | 32.5 ± 6 | 54.8 ± 23.2 |  |
| CCCC(=O)c1c(O)c(C/C=C(\C)CCC=C(C)C)c(O)c2c([C@H](CC)OC(C)=O)cc(=O)oc12 [Compound 4, Mammeasin A] | 12.6 ± 10.5 | 40.8 ± 12.8 | 53.1 ± 5.2 | 129 ± 20.9 |  |
| CCC(C)C(=O)c1c2c(c3oc(=O)cc(-c4ccccc4)c3c1O)C=CC(C)(C)O2 (centres unmarked) [Compound 25, Mammea A/AB cyclo D] |  |  |  | 6.7 ± 4.5 |  |
| CCC(C)C(=O)c1c(O)c2c(c3c([C@@H](O)CC)cc(=O)oc13)OC(C)(CCC=C(C)C)C=C2 (some centres unmarked) [Compound 3, Mammeasin F] |  |  |  | 14.9 ± 5.4 |  |
| CCCC(=O)c1c2c(c3oc(=O)cc(CCC)c3c1O)C=CC(C)(C)O2 [Compound 28, Mammea B/AC cyclo D] |  |  |  | 27.3 ± 2 |  |
| CCCc1cc(=O)oc2c3c(c(C(=O)C(C)CC)c(O)c12)OC(C)(C)C=C3 (centres unmarked) [Compound 27, Mammea B/AB cyclo D] |  |  |  | 40.7 ± 18.1 |  |
| CCCC(=O)c1c(O)c2c(c3c([C@@H](O)CC)cc(=O)oc13)OC(C)(CCC=C(C)C)C=C2 (some centres unmarked) [Compound 1, kayeassamin I] |  |  |  | 37.5 ± 11.1 |  |
| CC(C)(C)NC(=O)[C@H]1CC[C@H]2[C@@H]3CC[C@H]4NC(=O)C=C[C@]4(C)[C@H]3CC[C@]12C [Finasteride, finasteride, reference compound] |  |  |  |  | inhibition at 0.1 µM: 48.5 ± 10.9%; inhibition at 0.3 µM: 61.8 ± 11.4%; inhibition at 1 µM: 76 ± 9.8%; inhibition at 3 µM: 91.3 ± 13.1% |
| CC(C)=CCc1c(O)c(C(=O)C(C)C)c(O)c2c(-c3ccccc3)cc(=O)oc12 [Compound 20, Mammea A/AD] |  |  |  | 30.3 ± 2.1 |  |
| CCC(C)C(=O)c1c(O)c2c(c3c([C@@H](O)CC)cc(=O)oc13)OC(C)(C)C=C2 (some centres unmarked) [Compound 32, deacetylmammea E/BB cyclo D] |  |  |  | 31.9 ± 8.8 |  |
| CCCC(=O)c1c(O)c(C/C=C(\C)CCC=C(C)C)c2c3c(cc(=O)oc13)CC(C)O2 (centres unmarked) [Compound 7, Mammeasin D] |  |  |  | 16.4 ± 5.8 |  |
| CC(C)CC(=O)c1c2c(c3oc(=O)cc(-c4ccccc4)c3c1O)C=CC(C)(C)O2 [Compound 24, Mammea A/AA cyclo D] |  |  |  | 38.3 ± 3.8 |  |
| CCCC(=O)c1c(O)c(CC=C(C)C)c2oc(=O)cc(-c3ccccc3)c2c1O [Compound 19, Mammea A/AC] |  |  |  | 41.5 ± 11.4 |  |
| CCCC(=O)c1c(O)c2c(c3c(C(CC)OC(C)=O)cc(=O)oc13)OC(C)(C)C=C2 (centres unmarked) [Compound 29, Mammea E/BC cyclo D] |  |  |  | 31.9 ± 3.9 |  |
| CCC(C)C(=O)c1c(O)c(C/C=C(\C)CCC=C(C)C)c(O)c2c([C@@H](O)CC)cc(=O)oc12 (some centres unmarked) [Compound 13, surangin C] | 28.2 ± 7.7 | 63.6 ± 8.3 | 114 ± 6.7 | 124 ± 9.6 |  |
| CCC(C)C(=O)c1c(O)c(CC=C(C)C)c2oc(=O)cc(-c3ccccc3)c2c1O (centres unmarked) [Compound 18, mammea A/AB] |  |  |  | 23.3 ± 7.2 |  |
| CCCC(=O)c1c(O)c(CC=C(C)C)c2oc(=O)cc([C@@H](O)CC)c2c1O [Compound 9, Kayeassamin E] | 2.6 ± 7.1 | 11.5 ± 12.7 | 51.1 ± 12.4 | 79.9 ± 12.7 |  |
| CCC(C)C(=O)c1c(O)c(CC=C(C)C)c2oc(=O)cc([C@@H](O)CC)c2c1O (some centres unmarked) [Compound 10, Kayeassamin F] | 4.6 ± 1.1 | 41 ± 6.4 | 68.6 ± 3.9 | 94.6 ± 1.3 |  |
| CC[C@H](O)c1cc(=O)oc2c3c(c(C(=O)CC(C)C)c(O)c12)OC(C)(C)C=C3 [Compound 31, deacetylmammea E/AA cyclo D] |  |  |  | 37.1 ± 4 |  |
